These results are taken from ChEMBL document CHEMBL3621145, “Synthesis of imidazothiadiazolebenzimidazole conjugates as mitochondrial apoptosis inducers” (Medchemcomm, 2014).

Test [1] deals with A549. As to the kind of experiment: Anticancer activity against human A549 cells by MTT assay. The class given is functional, cell-based. A general note: Tetrazolium dyes change colour on reduction, which living cells bring about.
Test [2] has as its system A-375. The test can be described thus: Anticancer activity against human A375 cells by MTT assay. The class given is functional, cell-based.
Test [3] concerns ME-180. The test can be described thus: Cell cycle arrest in human ME180 cells assessed as accumulation at SubG1 phase at 1 uM after 48 hrs by FACS analysis (reference value: 7.0%). The class given is functional. A general note: In flow cytometry, cells or beads pass a laser one at a time.
The test system of test [4] is ME-180. As to the kind of experiment: Cell cycle arrest in human ME180 cells assessed as accumulation at S phase at 1 uM after 48 hrs by FACS analysis (reference value: 19.3%). The test is classed as functional.
Test [5] relates to ME-180. The test can be described thus: Induction of apoptosis in human ME180 cells assessed as necrotic cells at 1 uM for 24 hrs by annexin V/PI staining based flow cytometry (reference value: 11.7%). The test is classed as functional.
For test [6], the system named is DU-145. The test can be described thus: Anticancer activity against human DU145 cells by MTT assay. The class given is functional, cell-based.
The subject of test [7] is ME-180. The test can be described thus: Cell cycle arrest in human ME180 cells assessed as accumulation at G2/M phase at 1 uM after 48 hrs by FACS analysis (reference value: 13.2%). The class given is functional.
Test [8] concerns ME-180. The test can be described thus: Induction of apoptosis in human ME180 cells assessed as viable cells at 1 uM for 24 hrs by annexin V/PI staining based flow cytometry (reference value: 83.1%). The conditions noted are these: ME-180, 24 h, read-out: Activity. The class given is functional.
Test [9] has as its system ME-180. As to the kind of experiment: Cell cycle arrest in human ME180 cells assessed as accumulation at G1 phase at 1 uM after 48 hrs by FACS analysis (reference value: 59.9%). The test is classed as functional.
Test [10] has as its system ME-180. The test can be described thus: Induction of apoptosis in human ME180 cells assessed as DNA fragmentation at 1 uM after 48 hrs. The test is classed as functional, cell-based.
Test [11] deals with ME-180. As to the kind of experiment: Induction to apoptosis in human ME180 cells assessed as increase in caspase-3 activity at 1 uM for 48 hrs relative to control. The class given is functional.
The test system of test [12] is ME-180. The test can be described thus: Induction of apoptosis in human ME180 cells assessed as late apoptotic cells at 1 uM for 24 hrs by annexin V/PI staining based flow cytometry (reference value: 5%). The class given is functional.
Test [13] has as its system ME-180. The test can be described thus: Anticancer activity against human ME180 cells by MTT assay. The test is classed as functional, cell-based.
Test [14] relates to ME-180. The test can be described thus: Induction of apoptosis in human ME180 cells assessed as early apoptotic cells at 1 uM for 24 hrs by annexin V/PI staining based flow cytometry (reference value: 0.2%). The class given is functional.
Test [15] deals with ME-180. The test can be described thus: Cell cycle arrest in human ME180 cells assessed as accumulation at G2/M phase at <1 uM. The class given is functional, cell-based.

The IC50 is the midpoint of a concentration-inhibition curve. The low end stands for greater potency, the high end for weaker potency.

The structures appear in SMILES notation. Active and inactive are the calls of the source. No cut-off for these calls is given here.

As to `COc1cccc2c1C(=O)c1c(O)c3c(c(O)c1C2=O)C[C@@](O)(C(=O)CO)C[C@@H]3O[C@H]1C[C@H](N)[C@H](O)[C@H](C)O1` [DOXORUBICIN], the IC50 in test [1] is 1100 nM; in [2], 1200 nM; in test [6], 2400 nM; in test [13] it was 500 nM. In addition, the Activity in test [3] is 7.7%; in test [4] it was 16.1%; in test [5], 16.8%; in [7], 10.9%; in [9] it was 64.8%; in [12] it was 15.1%. Further, the Activity in test [14] is on record as 0.7%. The viability at 1 µM in test [8] was 67.5%. Moreover, the result in test [10] and in test [15] was Active. The “fold change (FC)” value in test [11] came to 3.
